Measurements as given in article PMC7824769, “Identification of Small Molecules Blocking the Pseudomonas aeruginosa Type III Secretion System Protein PcrV” (Biomolecules, 2021).
Like-named read-outs stand apart in the source and are kept apart here.

Test system: J774 cells infected with P. aeruginosa strain PAK
Assay: cells
Assay type: cell-based, Pseudomonas aeruginosa
Conditions: for Anti-virulence efficacy in the infection assay (in words): 25-200 µM; for viability at 25 µM / viability at 50 µM / viability at 100 µM / viability at 200 µM: Pseudomonas aeruginosa; for viability at 25 µM: J774, compound 25 µM; for viability at 50 µM: J774, compound 50 µM; for viability at 100 µM: J774, compound 100 µM; for viability at 200 µM: J774, compound 200 µM
Protocol: The cell viability assay was performed essentially as described before. J774 cells were seeded in 96-well micro-titer plates (Nunc), 100 µL/well, to a final number of 50,000 cells/well in Dulbecco’s modified Eagle’s medium (DMEM) with glutamax (Merck) supplemented with 10% fetal calf serum (FCS) and 3 µg/mL gentamicin and incubated for 16-18 h. Overnight cultures of the P. aeruginosa strains PAK and PAKpcrV [10] were grown in Luria Broth (LB) on a rotary shaker at 220 rpm at 37 °C. Prior to infection, the bacteria were diluted 1:10 in DMEM + glutamax and incubated for 1 h at 37 °C (shaking). The J774 cells were washed once with PBS, then 30 µL of DMEM with glutamax and 10% FCS supplemented with the potential binders at concentrations of 50, 100, 200, and 400 µM were added to the wells in triplicates. The infection was initiated by adding 30 µL of the diluted bacterial solutions (where the OD600 had been diluted to 0.0008) to each well to initiate infection. This infection results in a final bacterial concentration of OD600 = 0.0004 and a multiplicities of infection (MOI) of approximately 8, with final concentrations of the compounds at 25, 50, 100, and 200 µM in 60 µL of DMEM + glutamax and 5% FCS. In the primary screening, the compounds were run at one concentration (100 µM) in duplicates. As an infection control, the wild-type strain PAK with 1% DMSO was added, and as a positive control, PAKpcrV with 1% DMSO was added into four wells each. After 3 h and 30 min, 10 µL of UptiBlue Viable Cell Counting Kit (Interchime, France) was added to all wells. The infection was followed under the light microscope and the fluorescence (excitation 535 nm and emission 595 nm) was measured at 4, 5, and 6 h in a microplate reader (Synergy™ H4, Biotek). The results were calculated as percentage of living cells compared to uninfected control, where the uninfected control was set to 100% living cells and the infected control was set to 0% living cells. As a control, compounds were added to uninfected cells in a parallel experiment and viability was calculated as above to screen for cell toxicity. A compound was considered toxic if the viability was <80% of the uninfected control after 6 h of incubation and if a visual change of cell morphology was observed by microscopy. Z’ was calculated for each plate to ensure good quality throughout the screening. Only results from plates with a Z’ > 0.4 were counted. Standard deviation was calculated with Gaussian approximation when appropriate and shown as error bars in Figure 3C and Figure 4A.
The T3SS is important for P. aeruginosa infection of eukaryotic cells, and a T3SS activator mutant or a mutant lacking the T3SS tip protein PcrV are not able to infect eukaryotic cells. The macrophage cell line, J774, was infected with the wild-type P. aeruginosa strain PAK, and the potential PcrV binders were added to the wells at a final concentration of 100 µM to screen for inhibition of infection. The T3SS-mediated cytotoxic effect on the eukaryotic cells was measured by using a viability staining method (Uptiblue, Interchim), and the results were measured after 4, 5, and 6 h of infection. The pcrV-mutant (PAKpcrV), which is not able to infect macrophages due to deletion of the PcrV protein, was used as a control.

[1] = uninfected control = 100%, infected control = 0%, read-out: Viability Assay (% of Uninfected Control) 25 µM
[2] = uninfected control = 100%, infected control = 0%, read-out: Viability Assay (% of Uninfected Control) 50 µM
[3] = uninfected control = 100%, infected control = 0%, read-out: Viability Assay (% of Uninfected Control) 100 µM
[4] = uninfected control = 100%, infected control = 0%

| Structure (SMILES) | Anti-virulence efficacy in the infection assay (in words) | viability at 25 µM [1] | viability at 50 µM [2] | viability at 100 µM [3] | viability at 200 µM [4] | viability at 25 µM (one representative experiment, read-out: Macrophage Viability, wt+25 µM (Figure 3C)) | viability at 50 µM (one representative experiment, read-out: Macrophage Viability, wt+50 µM (Figure 3C)) | viability at 100 µM (one representative experiment, read-out: Macrophage Viability, wt+100 µM (Figure 3C)) |
| --- | --- | --- | --- | --- | --- | --- | --- | --- |
| Cc1c(Br)ccc(OC[C@@H]2C[C@H]2C(=O)O)c1C (relative stereo) [Compound 32] | as efficacious as or better than H1 | 22% | 21% | 33% | ≤ 38% |  |  |  |
| Cc1c(Br)ccc(OC[C@@H]2C[C@@H]2C(=O)O)c1C (relative stereo) [Compound 33] | as efficacious as or better than H1 | 24% | 24% | 38% | ≤ 38% |  |  |  |
| Cc1c(Br)ccc(OCCCC(=O)O)c1C [Compound H1] |  | 12% | 20% | 27% | 28% | -4% | 19% | 42% |
